Converted amounts (≈) assume the structure as drawn. *1 amine or outer side, *2 acyl side, *3 side chain or, on linkers, in order; H or OH if unused. Where a SMILES comes first, the peptide text is derived from it. Side-chain parts run from the residue outwards. [ ]: non-standard residue; d: D form. The star is where a group is joined. Tetrahydroisoquinolin(2-yl) = c1ccc2c(c1)CCN(*)C2; Ac3c(1R,2S-2-vinyl) = C=C[C@@H]1C[C@]1(N)C(=O)O; Hyp = O=C(O)[C@@H]1C[C@@H](O)CN1; Chg = N[C@H](C(=O)O)C1CCCCC1; CO = O=C([*:1])[*:2]; Carbamoyl = NC(=O)*

What is called IC50 is the concentration at which inhibition is half-maximal. For orientation: EC50 means the concentration at which the effect is half-maximal. In general, Vdss refers to a proportionality between amount in the body and measured concentration, not a real space. The thermodynamic solubility is the concentration in solution at equilibrium with solid. Usually efflux ratio stands for a quotient of directional permeabilities that is used to spot active efflux. By AUC(0-t) is commonly meant the area under the concentration-time curve up to a stated or last time point. What is called logD is lipophilicity at a set pH, counting ionised and neutral species.

A short description of data set [1]: Inhibition of Hepatitis C virus full-length NS3/4A protease assessed as quenched-fluorogenic RET-S1 substrate cleavage incubated for 10 mins prior to substrate addition by FRET analysis. Set-up: species or system Hepacivirus hominis.
Data set [2] relates to Hepatitis C virus. Nature of the data set: Antiviral activity against Hepatitis C virus infected in human HuH7 cells assessed as inhibition of HCV subgenomic replicon replication after 72 hrs by ELISA. In kind it is functional, organism-based, Hepacivirus hominis, Huh-7. Background: Replicon systems follow genome replication, usually without infectious particles.
Data set [3] is described as follows: Metabolic stability in human hepatocytes assessed as extraction ratio at 1 uM. It is filed as ADME, cell-based, Hepatocyte. Particulars: read-out: ERH; call rule not given here.
Data set [4] relates to Rattus norvegicus. Nature of the data set: Volume of distribution at steady state in Sprague-Dawley rat at 1 mg/kg, iv by HPLC-MS/MS analysis. The note with it: in vivo.
Data set [5] can be described thus: Metabolic stability in dog hepatocytes assessed as extraction ratio at 1 uM. It is filed as ADME, cell-based, Canis lupus familiaris, Hepatocyte. Particulars: read-out: ERH.
Data set [6] in a line: Aqueous solubility of the compound at pH 6.5 by modified shake-flask method. In kind it is physicochemical.
A short description of data set [7]: Aqueous solubility of the compound at pH 1.2 by modified shake-flask method. It is filed as physicochemical.
A short description of data set [8]: Permeability from apical to basolateral side of human Caco2 cells. Particulars: Caco-2, read-out: permeability. In kind it is ADME, cell-based. (In general: Caco-2 cells form a polarised layer with tight junctions and transporters.)
A short description of data set [9]: Aqueous solubility of the compound at pH 7.4 by modified shake-flask method. It is filed as physicochemical.
Data set [10] in a line: Efflux ratio of permeability from basolateral to apical side over apical to basolateral side in human Caco2 cells. In kind it is ADME, cell-based. The note with it: Caco-2.
Data set [11] is described as follows: Plasma clearance in rat assessed as extraction ratio. It is filed as ADME, organism-based. The note with it: read-out: ERH.
Data set [12] can be described thus: (§1) Ratio of AUC (0 to 24 hrs) in liver to plasma in Sprague-Dawley rat at 30 mg/kg, po by HPLC-MS/MS analysis. In kind it is ADME, organism-based. Also noted: dose 30 mg/kg, route oral. Particulars: Sprague-Dawley, liver and plasma, read-out: Ratio AUC.
A short description of data set [13]: Metabolic stability in cynomolgus monkey hepatocytes assessed as extraction ratio at 1 uM. In kind it is ADME, cell-based, Macaca fascicularis, Hepatocyte. The note with it: read-out: ERH.
Data set [14] is described as follows: AUC (0 to 24 hrs) in Sprague-Dawley rat liver at 30 mg/kg, po by HPLC-MS/MS analysis. In kind it is ADME, organism-based. Also noted: time < 24 hr, dose 30 mg/kg, route oral.
A short description of data set [15]: Lipophilicity, log D of the compound. It is filed as physicochemical. The note with it: octanol/water.
Data set [16] is described as follows: Metabolic stability in rat hepatocytes assessed as extraction ratio at 1 uM. It is filed as ADME, cell-based, Hepatocyte. Particulars: read-out: ERH.
Data set [17] in a line: AUC (0 to 24 hrs) in Sprague-Dawley rat plasma at 30 mg/kg, po by HPLC-MS/MS analysis. In kind it is ADME, organism-based. Also noted: time < 24 hr, dose 30 mg/kg, route oral.
A short description of data set [18]: Ratio of drug level in liver to plasma in Sprague-Dawley rat at 30 mg/kg, po by HPLC-MS/MS analysis. It is filed as ADME, organism-based. Also noted: dose 30 mg/kg, route oral. Particulars: liver and plasma.
Data set [19] deals with Liver. The description is as §1. In kind it is ADME, organism-based. Also noted: dose 30 mg/kg, route oral. Particulars: other tissue.
The mark [20] stands for this setting: Hepatitis C virus, Huh-7, 72 h, read-out: EC50.

With `CC(C)(C)OC(=O)N[C@H]1CCCCC/C=C\[C@@H]2C[C@@]2(C(=O)NS(=O)(=O)C2CC2)NC(=O)[C@@H]2C[C@@H](OC(=O)N3Cc4ccccc4C(O)C3)CN2C1=O` (some centres not stated), the concentration for half-maximal inhibition (IC50) in data set [1] worked out at 2.2 nM. Besides, in data set [2] (setting [20]), the EC50 was 718 nM.
In the case of `CC(C)(C)OC(=O)N[C@H]1CCCCC/C=C\[C@@H]2C[C@@]2(C(=O)O)NC(=O)[C@@H]2C[C@@H](O)CN2C1=O`, the IC50 in data set [1] was more than 50000 nM. For the same molecule, in [2] (huh-7), the EC50 entry is “Not Active”.
Consider `CN(C)S(=O)(=O)NC(=O)[C@@]12C[C@H]1/C=C\CCCCC[C@H](NC(=O)OC(C)(C)C)C(=O)N1C[C@H](OC(=O)N3Cc4ccccc4C3)C[C@H]1C(=O)N2`, for which the hepatic extraction ratio at 1 µM in [3] was found to be 0.56; in data set [5], 0.16; in data set [13], 0.56; in data set [16], 0.16. Moreover, the Vdss in data set [4] stood at 2.583 L/kg. The values for the solubility (thermodynamic) in data set [6], in data set [7] and in data set [9] were 165 µg/mL (≈ 230 µM), 0.5 µg/mL (≈ 0.697 µM) and more than 1000 µg/mL, respectively. In addition, in [1], the concentration for half-maximal inhibition (IC50) came to 2.5 nM. Moreover, the Papp A→B in data set [8] was less than 2 ×10⁻⁶ cm/s. Further, the concentration for a half-maximal effect (EC50) in data set [2] (setting [20]) worked out at 2.8 nM. For the same molecule, the efflux ratio in data set [10] is more than 2. The hepatic extraction ratio in [11] was more than 1. Further, the Kp in data set [12] was found to be 132. The AUC(0-t) at 24 h in [14] worked out at 136000 ng·h/mL; in [17] it was 1030 ng·h/mL. This molecule also registered a log distribution coefficient (logD) in [15] of 2.5.
`CC(C)(C)OC(=O)N[C@H]1CCCCC/C=C\[C@@H]2C[C@@]2(C(=O)NS(=O)(=O)C2CC2)NC(=O)[C@@H]2C[C@@H](OC(=O)N3Cc4ccccc4C3)CN2C1=O`: the hepatic extraction ratio at 1 µM in [3] was 0.65; in [5] it was 0.33; in [13], 0.28; in data set [16], 0.01. This molecule also had a volume of distribution (Vdss) in data set [4] of 0.089 L/kg. Moreover, the solubility (thermodynamic) in [6] was 702 µg/mL (≈ 983 µM); in [7], 0.5 µg/mL (≈ 0.7 µM); in data set [9], more than 1000 µg/mL. In addition, in data set [1], the IC50 is 1.2 nM. Besides, the Papp A→B in data set [8] is less than 2 ×10⁻⁶ cm/s. Besides, in data set [2] (setting [20]), the half-maximal effective concentration (EC50) stood at 2 nM. In [10], the efflux ratio is more than 2. Moreover, in data set [11], the hepatic extraction ratio was 0.06. Besides, in data set [12], the Kp was 1.2. The AUC(0-t) at 24 h stood at 40300 ng·h/mL in data set [14] and 32900 ng·h/mL in [17]. The logD in data set [15] turned out to be 2.4.
With `CC(C)(C)OC(=O)N[C@H]1CCCCC/C=C\[C@@H]2C[C@@]2(C(=O)NS(=O)(=O)C2CC2)NC(=O)[C@@H]2C[C@@H](OC(=O)N3CCc4ccccc4C3)CN2C1=O`, the hepatic extraction ratio at 1 µM came out at 0.49 in [3], 0.36 in data set [5], 0.53 in data set [13] and 0.05 in [16]. For the same molecule, in data set [4], the distribution volume (Vdss) is 5.982 L/kg. Further, the Kp in [18] is more than 1000. The solubility (thermodynamic) in [6] was 812 µg/mL (≈ 1120 µM); in data set [7] it was 0.5 µg/mL (≈ 0.687 µM); in data set [9], more than 1000 µg/mL. Besides, in [1], the IC50 was found to be 2.2 nM. Moreover, in [8], the Papp A→B was less than 2 ×10⁻⁶ cm/s. Also, in [2] (setting [20]), the EC50 was determined as 17.5 nM. Also, the efflux ratio in [10] was more than 2. In addition, the hepatic extraction ratio in data set [11] was more than 1. For the same molecule, the “Ratio AUC” value in [19] was 4608. Moreover, the results for the area under the curve AUC(0-t) at 24 h in data set [14] and in data set [17] were 276000 ng·h/mL and 60 ng·h/mL, respectively. In data set [15], this molecule returned a logD of 2.2.
For the molecule `CC1CN(C(=O)O[C@@H]2C[C@H]3C(=O)N[C@]4(C(=O)NS(=O)(=O)C5CC5)C[C@H]4/C=C\CCCCC[C@H](NC(=O)OC(C)(C)C)C(=O)N3C2)Cc2ccccc21` (some centres not stated), the IC50 in [1] is 1 nM. For the same molecule, in data set [2] (setting [20]), the EC50 was determined as 5.7 nM.
On the same counts, the results for `C=C[C@@H]1C[C@]1(NC(=O)[C@@H]1C[C@@H](OC(N)=O)CN1C(=O)[C@@H](NC(=O)[C@@H](NC(C)=O)C1CCCCC1)C(C)C)C(=O)O` (Ac-[Chg]V[Hyp](Carbamoyl)[Ac3c(1R,2S-2-vinyl)]-OH) are 200 nM and more than 10000 nM.
Turning to `C=C[C@@H]1C[C@]1(NC(=O)[C@@H]1C[C@@H](OC(=O)N2CCc3ccccc3C2)CN1C(=O)[C@@H](NC(=O)[C@@H](NC(C)=O)C1CCCCC1)C(C)C)C(=O)O` (Ac-[Chg]V[Hyp]([CO-Tetrahydroisoquinolin(2-yl)])[Ac3c(1R,2S-2-vinyl)]-OH), the IC50 in data set [1] amounted to 210 nM. In data set [2] (setting [20]), the 50% effective concentration (EC50) was more than 10000 nM.

Values taken from ChEMBL document CHEMBL3120136 (J Med Chem, 2014).
